Measurements taken from patent US8530445B2, “Combinations of sapacitabine or CNDAC with DNA methyltransferase inhibitors such as decitabine and procaine” (Cyclacel Limited, priority 2008, dated 2013).
Where two headings read alike, the source gives them in different places.

Experiments:
colon cancer = conditions: model of colon cancer; cited from earlier work
[1] = phase I, patients with a variety of cancers; cited from earlier work
HL60 cells [2] = test: Immunoblotting of cell lysates for cleaved PARP; assay type: cell-based; conditions: HL-60; 0.13 μM azacitidine, 0.13 μM CNDAC; 48 h-96 h total treatment
Description: Samples were collected at various times (indicated) after CNDAC addition. Cells were lysed, fractionated by SDS-PAGE, transferred to nitrocellulose and probed for cleaved PARP (a marker of apoptosis). Data is representative of two independent experiments.
HL-60 cells were treated with DMSO, 0.13 μM azacitidine, 0.13 μM CNDAC or both agents (AC). The schedule involved 24 h azacitidine or DMSO pretreatment followed by the addition of CNDAC or DMSO for the indicated times. Cells were harvested after 48 h-96 h total treatment time. The resulting lysates (20 μg) were resolved on 12% acrylamide Bis-Tris gels, transferred to nitrocellulose membranes and probed with the antibodies shown in FIG. 3. […] Cleaved PARP was also seen in the combination treatment.

HL60 cells [3] = test: Annexin V staining (apoptosis, flow cytometry); assay type: cell-based; conditions: for apoptotic cells (annexin V): 96 hours total treatment, azacitidine 128 nM, CNDAC 133 nM for 72 hours; for proportion of apoptotic cells (annexin V, in words): azacitidine 72 and 96 hours, CNDAC 48 or 72 hours
Description: (§1) (A) HL60 cells were treated with 128 nM azacitidine for 24 hours followed by 128 nM azacitidine and 133 nM CNDAC for a further 48 hours. Cells were fixed and DNA stained with propidium iodide. Single agent controls were also included. (B) HL60 cells were treated with 128 nM azacitidine for 24 hours followed by 128 nM azacitidine and 133 nM CNDAC for a further 48 hours. Cells were stained with annexin V that detected apoptotic cells and propidium iodide to detect viable cells. Single agent controls were also included. Data is the average of two samples and representative of at least two independent experiments.
as §1, with “72” for “48”
Single agent treatments were also performed as controls.

HL60 cells [4] = test: Cell cycle analysis (propidium iodide, flow cytometry); assay type: cell-based; conditions: azacitidine 128 nM 72 and 96 hours, CNDAC 133 nM by 48 hours
Description: as §1
(A) HL60 cells were treated with 128 nM azacitidine for 24 hours followed by 128 nM azacitidine and 133 nM CNDAC for a further 72 hours. Cells were fixed and DNA stained with propidium iodide. Single agent controls were also included. […] Cells were stained with annexin V that detected apoptotic cells and propidium iodide to detect viable cells. […]
For combination analysis, cells were treated with azacitidine for 24 hours followed by a further 48 or 72 hours with azacitidine and CNDAC. […] Prior to analysis cells were washed twice in PBS containing 1% BSA followed by staining with propidium iodide (50 μg/ml) and ribonuclease A (50 μg/ml) in PBS containing 0.1% Triton X-100 and the cell cycle profile was determined by flow cytometry.

[5] = tested on: cell line that is resistant to cytarabine; conditions: cited from earlier work

SMILES	anticancer activity (colon cancer)	dose limiting toxicity [1]	tolerability [1]	induction of cleaved PARP (marker of apoptosis) (HL60 cells [2])	apoptotic cells (annexin V) (HL60 cells [3])	proportion of apoptotic cells (annexin V, in words) (HL60 cells [3])	effect on cell cycle profile (in words) (HL60 cells [4])	IC50 ([5]; after 5-azacitidine (upregulation of dCK))	IC50 ([5]; before 5-azacitidine)
CCCCCCCCCCCCCCCC(=O)Nc1ccn(C2O[C@H](CO)[C@@H](O)[C@@H]2C#N)c(=O)n1 (stereo partly drawn) [(I), 1-(2-C-cyano-2-dioxy-β-D-arabino-pentofuranosyl)-N^4-palmitoyl cytosine]	strong anticancer activity	myelosuppression	well tolerated	–	–	–	–	–	–
N#C[C@H]1[C@H](O)[C@@H](CO)O[C@H]1n1ccc(N)nc1=O [CNDAC, 1-(2-C-Cyano-2-deoxy-β-D-arabino-pentafuranosyl)-cytosine]	–	–	–	induced cleaved PARP at later time points	16.5%	little effect	accumulation of cells in G2/M	–	–
Nc1ncn([C@@H]2O[C@H](CO)[C@@H](O)[C@H]2O)c(=O)n1 [azacitidine, 4-amino-1-β-D-ribofuranosyl-s-triazin-2(1H)-one, reference compound]	–	–	–	small induction in cleaved PARP at early time points	30.5%	small increase in the proportion of apoptotic cells	accumulation of cells in sub-G1, G2/M, and >G2/M	–	–
Nc1ccn([C@@H]2O[C@H](CO)[C@@H](O)[C@@H]2O)c(=O)n1 [cytarabine]	–	–	–	–	–	–	–	0.55 µM	12.5 µM
